Results: US9708557B2, “Process for the treatment of liquefied hydrocarbon gas using 2-amino-2(hydroxymethyl) propane-1,3-diol compounds” (Dow Global Technologies LLC, priority 2012, dated 2017)

What was measured:
[1] = pKa by automated Mettler Toledo titration; details: 50 weight % aqueous amine solution
[2] = Solubility of tested amine in heptane phase (gas chromatography, toluene internal standard); details: heptane 10 g, toluene 0.1 g, amine 2.5 g mixed at 20° C. for 1 hour, decanted 15 minutes; average of three injections
Protocol: A solution of heptane (10 g), toluene (0.1 g) and the tested amine (2.5 g) are mixed at 20° C. for 1 hour. The mixture is decanted for 15 minutes and the neat heptane phase is analyzed by gas chromatography using toluene as internal standard. The injection is repeated three times and peak areas of tested amine are averaged.

| pKa [1] | area counts (GC peak area of tested amine in neat heptane phase) [2] [area counts] | Structure (SMILES) |
| --- | --- | --- |
| 9.1 | 50 | CN(C)C(CO)(CO)CO [DMTA, 2-dimethylamino-2-(hydroxymethyl)propane-1,3-diol] |
| – | 0 | NC(CO)(CO)CO [TA, 2-amino-2-(hydroxymethyl)propane-1,3-diol] |
